Laboratory results taken from patent US9295706B2, “Phytotherapic pharmaceutical combination of Lippia salviifolia and Lippia sidoides, phytotherapic pharmaceutical composition, process for preparing a phytotherapic pharmaceutical composition and veterinary uses thereof” (priority 2010, dated 2016).

Tests used:
Type in all cases: cell-based
Staphylococcus aureus = assay: Minimum Inhibitory Concentration (MIC) against Staphylococcus aureus; conditions: Staphylococcus aureus strain
Pseudomonas aeruginosa = assay: Minimum Inhibitory Concentration (MIC) against Pseudomonas aeruginosa; conditions: Pseudomonas aeruginosa strain
Escherichia coli = assay: Minimum Inhibitory Concentration (MIC) against Escherichia coli; conditions: Escherichia coli strain
[1] = test system: Staphylococcus epidermidis; assay: Minimum Inhibitory Concentration (MIC) against Staphylococcus epidermidis; conditions: Staphylococcus epidermidis strain
Candida albicans = assay: Minimum Inhibitory Concentration (MIC) against Candida albicans; conditions: Candida albicans strain

Molecule | MIC Values (Staphylococcus aureus) | MIC Values (Pseudomonas aeruginosa) | MIC Values (Escherichia coli) | MIC Values [1] | MIC Values (Candida albicans)
Gemtamicin | 75 (a) μg/ml | 37 (a) μg/ml | 75 (a) μg/ml | 150 (a) μg/ml | –
C[C@@H]1[C@H](O)[C@@H](C)/C=C/C=C/C=C/C=C/C=C/C=C/C=C/[C@H](O[C@@H]2O[C@H](C)[C@@H](O)[C@H](N)[C@@H]2O)C[C@@H]2O[C@](O)(C[C@@H](O)C[C@@H](O)[C@H](O)CC[C@@H](O)C[C@@H](O)CC(=O)O[C@H]1C)C[C@H](O)[C@H]2C(=O)O [Amphotericin B] | – | – | – | – | 3.15 (b) μg/ml
